Test results from patent US20090105305A1, “Therapeutic Agents - 550” (AstraZeneca AB, priority 2006, published 2009).

molecular target: T1, human Fatty Acid Synthase (Homo sapiens, UniProt P49327); experiment: Human FAS enzyme assay (decrease in NADPH fluorescence); assay type: biochemical; settings: % inhibition at a concentration of 100 micromolar
T1 construct: made in house
Method in brief: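 In-house human FAS (0.4 μg) was preincubated 15 min at RT with compound and NADPH (added at 166.6 μM) in 0.1 M Tris pH 7.5, 1 mM glutathione, 0.05% BSA. Malonyl-/acetyl-CoA (500/150 μM in substrate mix) was then added for 60 min. Readout was NADPH fluorescence loss (ex 340/em 460) over a time-zero read, with IC50 from a sigmoid fit.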

T1 sequence (P49327 whole entry): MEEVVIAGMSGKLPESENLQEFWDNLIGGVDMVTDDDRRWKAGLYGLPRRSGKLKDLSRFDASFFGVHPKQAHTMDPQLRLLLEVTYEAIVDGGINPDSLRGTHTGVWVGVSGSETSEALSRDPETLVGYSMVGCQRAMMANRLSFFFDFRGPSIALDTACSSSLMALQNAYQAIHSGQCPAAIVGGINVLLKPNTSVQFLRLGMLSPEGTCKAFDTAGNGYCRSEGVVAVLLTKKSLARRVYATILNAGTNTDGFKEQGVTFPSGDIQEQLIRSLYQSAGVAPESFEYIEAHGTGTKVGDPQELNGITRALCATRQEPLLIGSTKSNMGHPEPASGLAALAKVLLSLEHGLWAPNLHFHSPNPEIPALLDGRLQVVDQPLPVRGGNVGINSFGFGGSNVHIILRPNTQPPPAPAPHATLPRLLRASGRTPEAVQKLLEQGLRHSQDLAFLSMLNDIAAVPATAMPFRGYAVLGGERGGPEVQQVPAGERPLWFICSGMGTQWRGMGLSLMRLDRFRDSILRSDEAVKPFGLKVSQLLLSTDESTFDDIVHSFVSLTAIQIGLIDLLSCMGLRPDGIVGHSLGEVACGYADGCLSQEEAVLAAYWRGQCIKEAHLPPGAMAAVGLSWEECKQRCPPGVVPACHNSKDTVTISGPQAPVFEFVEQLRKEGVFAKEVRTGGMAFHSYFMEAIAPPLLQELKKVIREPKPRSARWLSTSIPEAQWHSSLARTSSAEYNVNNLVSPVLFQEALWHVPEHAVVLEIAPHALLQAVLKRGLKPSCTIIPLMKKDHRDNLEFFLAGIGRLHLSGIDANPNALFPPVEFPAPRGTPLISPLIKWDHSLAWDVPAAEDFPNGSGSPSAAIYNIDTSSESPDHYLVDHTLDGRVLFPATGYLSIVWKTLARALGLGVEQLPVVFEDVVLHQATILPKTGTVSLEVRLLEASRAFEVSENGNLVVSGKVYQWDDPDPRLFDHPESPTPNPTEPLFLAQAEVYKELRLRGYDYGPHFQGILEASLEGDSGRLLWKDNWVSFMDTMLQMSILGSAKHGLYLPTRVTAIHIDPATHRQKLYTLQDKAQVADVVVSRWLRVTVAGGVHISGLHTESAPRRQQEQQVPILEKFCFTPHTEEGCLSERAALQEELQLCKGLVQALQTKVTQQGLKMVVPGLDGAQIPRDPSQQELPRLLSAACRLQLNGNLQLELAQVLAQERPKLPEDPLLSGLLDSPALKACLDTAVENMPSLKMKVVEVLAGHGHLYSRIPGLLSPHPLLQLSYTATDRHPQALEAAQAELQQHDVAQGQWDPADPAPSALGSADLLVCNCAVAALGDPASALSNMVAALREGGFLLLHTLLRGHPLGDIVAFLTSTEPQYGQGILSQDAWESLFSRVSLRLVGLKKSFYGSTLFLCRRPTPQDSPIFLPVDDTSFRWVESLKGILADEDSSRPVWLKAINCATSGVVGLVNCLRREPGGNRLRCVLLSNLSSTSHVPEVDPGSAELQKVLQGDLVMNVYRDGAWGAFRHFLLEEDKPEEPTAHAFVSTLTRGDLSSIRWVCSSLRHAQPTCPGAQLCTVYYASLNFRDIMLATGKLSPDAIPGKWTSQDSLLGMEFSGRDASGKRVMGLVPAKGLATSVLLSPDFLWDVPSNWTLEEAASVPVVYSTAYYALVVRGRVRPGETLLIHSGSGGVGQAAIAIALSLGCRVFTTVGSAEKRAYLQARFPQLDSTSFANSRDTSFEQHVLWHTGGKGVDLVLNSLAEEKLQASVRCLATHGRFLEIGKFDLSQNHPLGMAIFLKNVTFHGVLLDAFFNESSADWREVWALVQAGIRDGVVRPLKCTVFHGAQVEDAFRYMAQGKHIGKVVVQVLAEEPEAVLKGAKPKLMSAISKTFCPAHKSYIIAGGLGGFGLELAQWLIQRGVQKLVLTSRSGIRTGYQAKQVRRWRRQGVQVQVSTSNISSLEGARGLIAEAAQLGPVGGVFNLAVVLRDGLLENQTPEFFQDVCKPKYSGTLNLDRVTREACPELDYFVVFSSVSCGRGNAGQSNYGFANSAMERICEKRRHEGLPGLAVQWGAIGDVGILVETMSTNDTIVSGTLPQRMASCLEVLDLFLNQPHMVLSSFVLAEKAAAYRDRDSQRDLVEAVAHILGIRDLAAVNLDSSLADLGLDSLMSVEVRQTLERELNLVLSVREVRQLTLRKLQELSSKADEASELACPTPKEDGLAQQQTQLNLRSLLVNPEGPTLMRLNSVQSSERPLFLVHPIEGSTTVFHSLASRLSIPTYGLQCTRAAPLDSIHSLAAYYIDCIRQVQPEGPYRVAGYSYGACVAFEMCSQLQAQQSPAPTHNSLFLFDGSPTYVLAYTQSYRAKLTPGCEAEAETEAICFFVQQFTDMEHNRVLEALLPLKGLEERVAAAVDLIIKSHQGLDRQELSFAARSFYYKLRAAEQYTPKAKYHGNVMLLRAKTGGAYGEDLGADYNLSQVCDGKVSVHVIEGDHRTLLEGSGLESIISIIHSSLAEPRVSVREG

SMILES | inhibition at 100 µM
Cc1ccc(C(=O)N2CCC(c3ccc(C#N)cc3)CC2)cc1NS(=O)(=O)CCNS(=O)(=O)C(C)C [Example 80, N-[2-[[5-[4-(4-cyanophenyl)piperidine-1-carbonyl]-2-methyl-phenyl]sulfamoyl]ethyl]propane-2-sulfonamide] | 90%
Cc1ccc(C(=O)N2CCC(c3ccc(C#N)cc3)CC2)cc1NS(=O)(=O)c1cccc(C(N)=O)c1 [Example 81, 3-[[5-[4-(4-cyanophenyl)piperidine-1-carbonyl]-2-methyl-phenyl]sulfamoyl]benzamide] | 90%
Cc1ccc(C(=O)N2CCC(c3ccc(C#N)cc3)CC2)cc1NS(=O)(=O)c1cccc(C(=O)N(C)C)c1 [Example 82, 3-[[5-[4-(4-cyanophenyl)piperidine-1-carbonyl]-2-methyl-phenyl]sulfamoyl]-N,N-dimethyl-benzamide] | 93%
CNC(=O)c1cccc(S(=O)(=O)Nc2cc(C(=O)N3CCC(c4ccc(C#N)cc4)CC3)ccc2C)c1 [Example 83, 3-[[5-[4-(4-cyanophenyl)piperidine-1-carbonyl]-2-methyl-phenyl]sulfamoyl]-N-methyl-benzamide] | 98%
Cc1ccc(C(=O)N2CCC(c3ccc(C#N)cc3)CC2)cc1NS(=O)(=O)c1cccc(C(=O)NCCO)c1 [Example 84, 3-[[5-[4-(4-cyanophenyl)piperidine-1-carbonyl]-2-methyl-phenyl]sulfamoyl]-N-(2-hydroxyethyl)benzamide] | 92%
Cc1ccc(C(=O)N2CCC(c3ccc(C#N)cc3)CC2)cc1NS(=O)(=O)c1cccc(C(=O)NC(C)C)c1 [Example 85, 3-[[5-[4-(4-cyanophenyl)piperidine-1-carbonyl]-2-methyl-phenyl]sulfamoyl]-N-propan-2-yl-benzamide] | 95%
Cc1ccc(C(=O)N2CCC(c3ccc(C#N)cc3)CC2)cc1NS(=O)(=O)CCNC(=O)c1ccccc1 [Example 86, N-[2-[[5-[4-(4-cyanophenyl)piperidine-1-carbonyl]-2-methyl-phenyl]sulfamoyl]ethyl]benzamide] | 100%
COCC(=O)NCCS(=O)(=O)Nc1cc(C(=O)N2CCC(c3ccc(C#N)cc3)CC2)ccc1C [Example 87, N-[2-[[5-[4-(4-cyanophenyl)piperidine-1-carbonyl]-2-methyl-phenyl]sulfamoyl]ethyl]-2-methoxy-acetamide] | 82%
Cc1ccc(C(=O)N2CCC(c3ccc(C#N)cc3)CC2)cc1NS(=O)(=O)CC(=O)N1CCOCC1 [Example 88, N-[5-[4-(4-cyanophenyl)piperidine-1-carbonyl]-2-methyl-phenyl]-2-morpholin-4-yl-2-oxo-ethanesulfonamide] | 89%
COc1ccc(C(=O)N2CCC(c3ccc(C#N)cc3)CC2)cc1NS(=O)(=O)Cc1ccccc1 [Example 89, N-[5-[4-(4-cyanophenyl)piperidine-1-carbonyl]-2-methoxy-phenyl]-1-phenyl-methanesulfonamide] | 78%
Cc1ccc(C(=O)N2CCC(c3ccc(C#N)cc3)CC2)cc1NS(=O)(=O)c1ccc(Cl)nc1 [Example 90, 6-chloro-N-[5-[4-(4-cyanophenyl)piperidine-1-carbonyl]-2-methyl-phenyl]pyridine-3-sulfonamide] | 79%
Cc1ccc(C(=O)N2CCC(c3ccc(C#N)cc3)CC2)cc1NS(=O)(=O)CC(=O)N(C)C [Example 91, 2-[[5-[4-(4-cyanophenyl)piperidine-1-carbonyl]-2-methyl-phenyl]sulfamoyl]-N,N-dimethyl-acetamide] | 80%
Cc1ccc(C(=O)N2CCC(c3ccc(C#N)cc3)CC2)cc1NS(=O)(=O)CC(=O)NCCO [Example 92, 2-[[5-[4-(4-cyanophenyl)piperidine-1-carbonyl]-2-methyl-phenyl]sulfamoyl]-N-(2-hydroxyethyl)acetamide] | 80%

Results, then the molecule that gave them:

inhibition at 100 µM | SMILES
79% | Cc1ccc(C(=O)N2CCC(c3ccc(C#N)cc3)CC2)cc1NS(=O)(=O)c1ccc(N2CCOCC2)nc1 [Example 93, N-[5-[4-(4-cyanophenyl)piperidine-1-carbonyl]-2-methyl-phenyl]-6-morpholin-4-yl-pyridine-3-sulfonamide]
86% | Cc1ccc(C(=O)N2CCC(c3ccc(C#N)cc3)CC2)cc1NS(=O)(=O)c1cn(C)cn1 [Example 94, N-[5-[4-(4-cyanophenyl)piperidine-1-carbonyl]-2-methyl-phenyl]-1-methyl-imidazole-4-sulfonamide]
73% | Cc1ccc(C(=O)N2CCC(c3ccc(C#N)cc3)CC2)cc1NS(=O)(=O)c1cnoc1C [Example 95, N-[5-[4-(4-cyanophenyl)piperidine-1-carbonyl]-2-methyl-phenyl]-5-methyl-1,2-oxazole-4-sulfonamide]
98% | Cc1ccc(C(=O)N2CCC(c3ccc(C#N)cc3)CC2)cc1NS(=O)(=O)c1ccc(N(C)C)nc1 [Example 96, N-[5-[4-(4-cyanophenyl)piperidine-1-carbonyl]-2-methyl-phenyl]-6-dimethylamino-pyridine-3-sulfonamide]
88% | Cc1ccc(C(=O)N2CCC(c3ccc(C#N)cc3)CC2)cc1NS(=O)(=O)c1cccc(C(=O)N2CCOCC2)c1 [Example 97, N-[5-[4-(4-cyanophenyl)piperidine-1-carbonyl]-2-methyl-phenyl]-3-(morpholine-4-carbonyl)benzenesulfonamide]
110% | C=CS(=O)(=O)Nc1cc(C(=O)N2CCC(c3ccc(C#N)cc3)CC2)ccc1C [Example 98, N-[5-[4-(4-cyanophenyl)piperidine-1-carbonyl]-2-methyl-phenyl]ethenesulfonamide]
92% | Cc1ccc(C(=O)N2CCC(c3ccc(C#N)cc3)CC2)cc1NS(=O)(=O)c1ccc(NC(C)C)nc1 [Example 99, N-[5-[4-(4-cyanophenyl)piperidine-1-carbonyl]-2-methyl-phenyl]-6-(propan-2-ylamino)pyridine-3-sulfonamide]
90% | Cc1ccc(C(=O)N2CCC(c3ccc(C#N)cc3)CC2)cc1NS(=O)(=O)c1c(C)nn(C)c1Cl [Example 100, 5-chloro-N-[5-[4-(4-cyanophenyl)piperidine-1-carbonyl]-2-methyl-phenyl]-1,3-dimethyl-pyrazole-4-sulfonamide]
98% | Cc1ccc(C(=O)N2CCC(c3ccc(C#N)cc3)CC2)cc1NS(=O)(=O)c1c(Cl)nc2sccn12 [Example 101, 7-chloro-N-[5-[4-(4-cyanophenyl)piperidine-1-carbonyl]-2-methyl-phenyl]-4-thia-1,6-diazabicyclo[3.3.0]octa-2,5,7-triene-8-sulfonamide]
81% | Cc1ccc(C(=O)N2CCC(c3ccc(C#N)cc3)CC2)cc1NS(=O)(=O)c1ccc(=O)[nH]c1 [Example 102, N-[5-[4-(4-cyanophenyl)piperidine-1-carbonyl]-2-methyl-phenyl]-6-oxo-1H-pyridine-3-sulfonamide]
98% | COCCNc1ccc(S(=O)(=O)Nc2cc(C(=O)N3CCC(c4ccc(C#N)cc4)CC3)ccc2C)cn1 [Example 103, N-[5-[4-(4-cyanophenyl)piperidine-1-carbonyl]-2-methyl-phenyl]-6-(2-methoxyethylamino)pyridine-3-sulfonamide]
76% | C=CS(=O)(=O)Nc1cc(C(=O)N2CCC(c3ccc(C(N)=O)cc3)CC2)ccc1C [Example 104, 4-[1-[3-(ethenylsulfonylamino)-4-methyl-benzoyl]-4-piperidyl]benzamide]
